We go through two molecules from US20180118722A1, “NOVEL ARYL-CYANOGUANIDINE COMPOUNDS” (Bayer Pharma Aktiengesellschaft, priority 2015, published 2018).

Test [1] deals with T1, SMYD2 (Homo sapiens, UniProt Q9NRG4). Description: Scintillation proximity assay (SPA) for detection of SMYD2 enzymatic inhibition. Format: biochemical. Further details: The SMYD2 full length enzyme was produced in-house by expression (with an N-terminal 6×His tag) in E. coli; 6xHis (N); made in house; host or cells: E. coli. Particulars: p53 Peptide substrate 1.0 μM, 3H-SAM 60 nM, 30 min at 22° C.; read-out: IC50 [mol/l] (SPA Assay). From the text:
1.1 Scintillation Proximity Assay (SPA) for Detection of SMYD2 Enzymatic Inhibition
SMYD2 inhibitory activities of the compounds described in the present invention were quantified using a scintillation proximity assay (SPA) which measures methylation by the enzyme of the synthetic, biotinylated peptide Btn-Ahx-[…]−Amid×TFA (Biosyntan) derived from p53 and referred to from here on as “p53 Peptide”. The SMYD2 full length enzyme was produced in-house by expression (with an N-terminal 6×His tag) in E. coli and purification by affinity chromatography on a Ni-NTA Sepharose column followed by a size exclusion chromatography step on a Superdex 200 16/60 column (GE Healthcare).
In a typical assay 11 different concentrations of each compound (0.1 nM, 0.33 nM, 1.1 nM, 3.8 nM, 13 nM, 44 nM, 0.15 μM, 0.51 μM, 1.7 μM, 5.9 μM and 20 μM) were tested in duplicate within the same microtiter plate. To this end, 100-fold concentrated compound solutions (in DMSO) were previously prepared by serial dilution (1:3.4) of 2 mM stocks in a clear low volume 384-well source microtiter plate (Greiner Bio-One), from which 50 nl of compound solutions were transferred into a white low volume test microtiter plate from the same supplier. […] IC50 values were calculated by fitting the normalized inhibition data to a 4-parameter logistic equation using the “Screener” analysis software from Genedata.
Background: In a scintillation proximity assay essentially only radioactivity close to the scintillant gives light.

Test [2] deals with T1, SMYD2. Briefly: In Cell Western (ICW) cell-based assay for detection of SMYD2 methylation activity (p53K370me1) in SMYD2 overexpressing KYSE-150 cells. More on the design: expressed in transfected cells; host or cells: KYSE-150 (human esophageal carcinoma, DSMZ ACC 375). As to conditions: 72 h treatment, p53K370me1 signal, read-out: IC50 [mol/l] (ICW assay). From the text: 1.2 Cell-Based Assay for Detection of SMYD2 Methylation Activity
For the detection of SMYD2 cellular methylation activity an In Cell Western (ICW) assay was established. This assay allows rapid processing of multiple samples for SMYD2 methylation derived immunofluorescence signals, with normalization to cell number via the use of the nucleic acid dye DRAQS. KYSE-150 cells (human esophageal carcinoma cell line; DSMZ-German Collection of Microorganisms and Cell Cultures; No: ACC 375) have been stably transfected with a construct expressing wild-type SMYD2 (NCBI Reference Sequence: NP_064582.2). […]
For conducting the ICW assay 5000 SMYD2 overexpressing KYSE-150 cells/well were seeded in 96-well plates (SIGMA) and cultivated for 24 h. […] After 5 washes with PBS, the fluorescence in each well was measured on an Odyssey (LI-COR) scanner at 800 nm (p53K370me1 signal; 764 nm excitation) and 700 nm (DRAQS signal; 683 nm excitation). Fluorescence intensity was quantified and normalized to background and DRAQS signals. IC50 values were calculated by fitting the normalized inhibition data to a 4-parameter logistic equation (Minimum, Maximum, IC50, Hill; Y=Max+(Min−Max)/(1+(X/IC50)Hill)) for each tested compound. For IC50 determination C0 (=no inhibition) was defined as the signal measured for DMSO treated controls. […]

T1 sequence (Q9NRG4 whole entry): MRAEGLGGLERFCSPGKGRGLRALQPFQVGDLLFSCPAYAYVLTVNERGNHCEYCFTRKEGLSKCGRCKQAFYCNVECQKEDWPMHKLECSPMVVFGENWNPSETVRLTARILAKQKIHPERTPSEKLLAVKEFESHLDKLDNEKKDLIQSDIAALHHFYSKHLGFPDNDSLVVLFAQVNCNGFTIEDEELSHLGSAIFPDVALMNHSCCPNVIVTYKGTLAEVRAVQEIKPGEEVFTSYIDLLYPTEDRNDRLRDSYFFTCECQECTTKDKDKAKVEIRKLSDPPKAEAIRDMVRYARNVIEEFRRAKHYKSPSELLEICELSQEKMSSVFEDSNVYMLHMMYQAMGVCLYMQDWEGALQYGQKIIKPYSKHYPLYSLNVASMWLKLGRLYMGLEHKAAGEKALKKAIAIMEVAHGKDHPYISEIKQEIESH

As to `N#C/N=C(/Nc1cccc(OC(F)F)c1)N1CC(N2CCCC(N)C2=O)C(c2ccc(Cl)c(Cl)c2)=N1` (stereo not shown) [Example 1, 4-(3-amino-2-oxopiperidin-1-yl)-N′-cyano-3-(3 ,4-dichlorophenyl)-N-[3-(difluoromethoxy)phenyl]-4,5-dihydro-1H-pyrazole-1-carboximidamide], the IC50 stood at 0.0316 µM at SMYD2 [1] and 0.1 µM at SMYD2 [2].

On to `N#C/N=C(/Nc1cccc(OC(F)F)c1)N1CC(N2CCC(N)C2=O)C(c2ccc(Cl)c(Cl)c2)=N1` (stereo not shown) [Example 2, 4-(3-amino-2-oxopyrrolidin-1-yl)-N′-cyano-3-(3,4-dichlorophenyl)-N-[3-(difluoromethoxy)phenyl]-4,5-dihydro-1H-pyrazole-1-carboximidamide], for which the results for the IC50 on SMYD2 [1] and on SMYD2 [2] were 0.302 µM and 0.171 µM, respectively.
